Reference: patent US7175844B2, “Methods of modulating fibrosis” (Joslin Diabetes Center, Inc., priority 2000, dated 2007)
Where two headings read alike, the source gives them in different places.

Tests used:
[1] = tested on: VEGF-induced CTGF mRNA expression; test: Effect on VEGF-induced CTGF mRNA expression in BREC; type: cell-based, bovine
Description: (§1) H) Northern Blot Analysis—Total RNA was isolated using acid-guanidinium thiocyanate, and Northern blot analysis was performed. Total RNA (20 μg) was electrophoresed through 1% formaldehyde-agarose gels and then transferred to a nylon membrane. ^32P-Labeled cDNA probes were generated by use of labeling kits (Megaprime DNA labeling systems, Amersham Pharmacia Biotech). After ultraviolet cross-linking using a UV cross-linker (Stratagene, La Jolla, Calif.), blots were pre-hybridized, hybridized, and washed in 0.5×SSC, 5% SDS at 65° C. with 4 changes over 1 h. All signals were analyzed using a PhosphorImager, and lane loading differences were normalized.
(§2) I) Analysis of CTGF mRNA Half-life—CTGF mRNA half-life experiments were carried out using BREC and BRPC. […] Transcription was inhibited by the addition of actinomycin D (5 μg/ml).

[2] = tested on: VEGF-induced CTGF mRNA expression; test: Effect on VEGF-induced CTGF mRNA expression in BRPC; type: cell-based, bovine; conditions: for effect on VEGF-induced CTGF mRNA expression: pretreatment GF 109203X 1 μM or PD98059 20 μM
Description: as §1, §2

[3] = tested on: CTGF protein; test: CTGF protein expression by Western blot analysis in BREC; type: cell-based, bovine; conditions: for CTGF protein expression increase: VEGF 25 ng/ml, TGF-β1 10 ng/ml
Description: (§3) E) Western Blot Analysis—Immunoprecipitated proteins or 30 μg of total cell lysates were subjected to SDS-gel electrophoresis and electrotransferred to nitrocellulose membrane (Bio-Rad). The membrane was soaked in blocking buffer (phosphate-buffered saline containing 0.1% Tween 20 and 5% bovine serum albumin) for 1 h at room temperature and incubated with primary antibody overnight at 4° C. followed by incubation with horseradish peroxidase-conjugated secondary antibody (Amersham Pharmacia Biotech). Visualization was performed using the enhanced chemiluminescence detection system (ECL, Amersham Pharmacia Biotech) per the manufacturer's instructions.

[4] = tested on: CTGF mRNA; test: CTGF mRNA expression by Northern blot analysis in BREC; type: cell-based, bovine; conditions: for CTGF mRNA levels increase (comparative study): VEGF 25 ng/ml, TGF-β1 10 ng/ml
Description: (§4) Since BREC and BRPC may express both KDR and Flt1, we examined the effects of P1GF, a Flt1-specific ligand, on the induction of CTGF gene expression in vascular cells.
(§5) B) Cell Culture—Primary cultures of bovine retinal endothelial cells (BREC) and pericytes (BRPC) were isolated by homogenization and a series of filtration steps as described previously. BREC were subsequently cultured with endothelial cell basal medium supplemented with 10% plasma-derived horse serum, 50 mg/liter heparin, and 50 μg/ml endothelial cell growth factor. BRPC were cultured in Dulbecco's modified Eagle's medium with 5.5 mM glucose and 20% fetal bovine serum. Cells were cultured in 5% CO2 at 37° C., and media were changed every 3 days. Cells were characterized for their homogeneity by immunoreactivity with anti-factor VIII antibody for BREC and with monoclonal antibody 3G5 for BRPC. […] Only cells from passages 2 through 7 were used for the experiments.
as §1

[5] = target: Flt1 (VEGFR1) (bovine); test: cell-based or functional assay
[6] = target: KDR/Flk1 (VEGFR2) (bovine); test: cell-based or functional assay
[7] = target: T1, Flt1 (Bos taurus, UniProt F1MDD9); test: Immunoblot of Flt1 immunoprecipitates from BRPC (phosphotyrosine, PI3-kinase p85); type: cell-based, bovine
T1 construct: endogenous in cells; host or cells: primary bovine retinal pericytes (BRPC)
T1 sequence (F1MDD9 1-1251): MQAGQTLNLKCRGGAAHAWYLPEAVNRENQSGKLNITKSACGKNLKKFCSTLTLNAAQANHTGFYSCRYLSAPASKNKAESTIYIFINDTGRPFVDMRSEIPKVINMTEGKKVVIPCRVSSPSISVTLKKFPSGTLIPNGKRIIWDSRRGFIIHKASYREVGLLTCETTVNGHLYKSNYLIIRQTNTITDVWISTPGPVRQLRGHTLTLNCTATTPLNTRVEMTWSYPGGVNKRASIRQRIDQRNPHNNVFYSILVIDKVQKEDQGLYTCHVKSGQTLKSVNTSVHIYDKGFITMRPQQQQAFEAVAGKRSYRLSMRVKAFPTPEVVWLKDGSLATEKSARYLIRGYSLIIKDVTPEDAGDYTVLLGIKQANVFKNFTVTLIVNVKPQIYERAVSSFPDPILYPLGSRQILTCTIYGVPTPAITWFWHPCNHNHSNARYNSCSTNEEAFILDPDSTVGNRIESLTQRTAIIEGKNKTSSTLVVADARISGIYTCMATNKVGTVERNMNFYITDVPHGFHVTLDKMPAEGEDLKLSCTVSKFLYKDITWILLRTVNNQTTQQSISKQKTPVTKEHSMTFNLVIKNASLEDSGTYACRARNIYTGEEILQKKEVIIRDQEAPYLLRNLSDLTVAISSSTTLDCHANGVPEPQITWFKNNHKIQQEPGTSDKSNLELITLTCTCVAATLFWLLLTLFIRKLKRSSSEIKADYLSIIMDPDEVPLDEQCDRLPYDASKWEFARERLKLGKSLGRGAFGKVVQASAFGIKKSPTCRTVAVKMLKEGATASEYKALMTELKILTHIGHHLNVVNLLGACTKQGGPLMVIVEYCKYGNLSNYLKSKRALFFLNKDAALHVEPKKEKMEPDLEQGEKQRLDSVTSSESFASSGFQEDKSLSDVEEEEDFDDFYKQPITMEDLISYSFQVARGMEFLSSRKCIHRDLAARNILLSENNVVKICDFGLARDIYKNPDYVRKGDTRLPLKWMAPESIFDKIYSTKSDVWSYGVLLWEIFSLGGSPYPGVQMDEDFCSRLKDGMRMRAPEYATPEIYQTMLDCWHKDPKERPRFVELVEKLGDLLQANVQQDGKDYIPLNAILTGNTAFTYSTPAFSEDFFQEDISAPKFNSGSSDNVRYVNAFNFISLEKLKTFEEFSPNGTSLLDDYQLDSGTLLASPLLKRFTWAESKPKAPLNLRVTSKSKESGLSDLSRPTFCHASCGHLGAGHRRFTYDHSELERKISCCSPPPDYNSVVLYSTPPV
Description: (§6) D) Immunoprecipitation—Cells were washed three times with cold phosphate-buffered saline and solubilized in 200 μl of lysis buffer (1% Triton X-100, 50 mmol/liter HEPES, 10 mmol/liter EDTA, 10 mmol/liter sodium pyrophosphate, 100 mmol/liter sodium fluoride, 1 mmol/liter sodium orthovanadate, 1 μg/ml aprotinin, 1 μg/ml leupeptin, and 2 mmol/liter phenylmethylsulfonyl fluoride). After centrifugation at 12,000 rpm for 10 min, 1.0 mg of protein was subjected to immunoprecipitation. To clear the protein extract, protein A-Sepharose (20 μl of a 50% suspension) was added to the cell lysates, after which they were incubated for 1 h, followed by centrifugation and collection of the supernatant. A specific rabbit anti-KDR or Flt1 antibody was added and rocked at 4° C. for 2 h; 20 μl of protein A-Sepharose was then added, and the sample was rocked for another 2 h at 4° C. For denaturation, protein A-Sepharose antigen-antibody conjugates were separated by centrifugation, washed five times, and boiled for 3 min in Laemmli sample buffer.

[8] = target: T2, KDR (Bos taurus, UniProt A0AAA9SPC9); test: Immunoblot of KDR immunoprecipitates from BREC (phosphotyrosine, PI3-kinase p85); type: cell-based, bovine
T2 construct: endogenous in cells; host or cells: primary bovine retinal endothelial cells (BREC)
Description: as §6, §3

[9] = target: Flt1 (Homo sapiens, UniProt P17948); conditions: known value; cited from earlier work
[10] = tested on: CTGF mRNA; test: CTGF mRNA expression by Northern blot analysis in BRPC; type: cell-based, bovine; conditions: for CTGF mRNA levels, maximum increase: 25 ng/ml, after 9 h
Description: as §4, §5, §1

[11] = tested on: Erk
Description: as §3

[12] = tested on: Akt
Description: as §3

[13] = tested on: CTGF protein; conditions: BRPC, 25 ng/ml, after 10 h
Description: as §3

[14] = inhibitor pretreatment (wortmannin 100 nM), VEGF 25 ng/ml 6 h
[15] = VEGF 25 ng/ml + cycloheximide 10 μg/ml, 6 h
[16] = cycloheximide 10 μg/ml, VEGF 25 ng/ml, 6 h

T2 sequence (A0AAA9SPC9 20-1356): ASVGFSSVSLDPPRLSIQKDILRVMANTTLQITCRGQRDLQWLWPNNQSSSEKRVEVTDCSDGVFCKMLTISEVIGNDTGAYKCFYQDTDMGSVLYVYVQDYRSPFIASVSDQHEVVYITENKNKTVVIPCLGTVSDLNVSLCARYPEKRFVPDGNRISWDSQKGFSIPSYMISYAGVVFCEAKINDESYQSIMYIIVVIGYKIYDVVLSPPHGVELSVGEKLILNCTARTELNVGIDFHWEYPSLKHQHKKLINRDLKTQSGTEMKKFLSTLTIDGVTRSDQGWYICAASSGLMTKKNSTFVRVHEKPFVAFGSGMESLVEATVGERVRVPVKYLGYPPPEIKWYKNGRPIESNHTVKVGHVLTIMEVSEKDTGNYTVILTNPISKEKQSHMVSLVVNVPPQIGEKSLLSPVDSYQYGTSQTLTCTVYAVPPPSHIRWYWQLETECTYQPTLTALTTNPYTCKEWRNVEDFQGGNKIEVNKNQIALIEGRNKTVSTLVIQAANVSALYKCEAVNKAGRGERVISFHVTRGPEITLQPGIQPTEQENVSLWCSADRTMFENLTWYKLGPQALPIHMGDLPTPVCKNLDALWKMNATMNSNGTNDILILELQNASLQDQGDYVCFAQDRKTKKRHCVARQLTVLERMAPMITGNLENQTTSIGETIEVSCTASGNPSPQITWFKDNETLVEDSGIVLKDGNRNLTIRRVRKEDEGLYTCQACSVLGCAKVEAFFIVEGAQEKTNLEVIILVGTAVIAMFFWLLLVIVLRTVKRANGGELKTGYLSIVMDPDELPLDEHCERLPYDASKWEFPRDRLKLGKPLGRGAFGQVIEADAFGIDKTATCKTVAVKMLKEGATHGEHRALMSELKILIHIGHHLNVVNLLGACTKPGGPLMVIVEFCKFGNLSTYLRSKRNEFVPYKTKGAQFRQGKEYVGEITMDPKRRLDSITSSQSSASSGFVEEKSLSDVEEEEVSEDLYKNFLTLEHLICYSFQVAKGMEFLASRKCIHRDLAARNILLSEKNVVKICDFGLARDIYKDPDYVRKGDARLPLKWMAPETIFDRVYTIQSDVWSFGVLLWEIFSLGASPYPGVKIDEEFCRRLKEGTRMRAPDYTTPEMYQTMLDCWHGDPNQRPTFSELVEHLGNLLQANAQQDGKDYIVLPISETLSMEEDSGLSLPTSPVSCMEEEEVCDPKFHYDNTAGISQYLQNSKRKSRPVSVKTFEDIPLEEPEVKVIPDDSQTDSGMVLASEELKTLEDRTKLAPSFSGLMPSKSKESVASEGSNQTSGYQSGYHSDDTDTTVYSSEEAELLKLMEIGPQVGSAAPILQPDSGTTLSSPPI
Chain of Flt1 (Homo sapiens, UniProt P17948) (P17948 27-1338, species assumed): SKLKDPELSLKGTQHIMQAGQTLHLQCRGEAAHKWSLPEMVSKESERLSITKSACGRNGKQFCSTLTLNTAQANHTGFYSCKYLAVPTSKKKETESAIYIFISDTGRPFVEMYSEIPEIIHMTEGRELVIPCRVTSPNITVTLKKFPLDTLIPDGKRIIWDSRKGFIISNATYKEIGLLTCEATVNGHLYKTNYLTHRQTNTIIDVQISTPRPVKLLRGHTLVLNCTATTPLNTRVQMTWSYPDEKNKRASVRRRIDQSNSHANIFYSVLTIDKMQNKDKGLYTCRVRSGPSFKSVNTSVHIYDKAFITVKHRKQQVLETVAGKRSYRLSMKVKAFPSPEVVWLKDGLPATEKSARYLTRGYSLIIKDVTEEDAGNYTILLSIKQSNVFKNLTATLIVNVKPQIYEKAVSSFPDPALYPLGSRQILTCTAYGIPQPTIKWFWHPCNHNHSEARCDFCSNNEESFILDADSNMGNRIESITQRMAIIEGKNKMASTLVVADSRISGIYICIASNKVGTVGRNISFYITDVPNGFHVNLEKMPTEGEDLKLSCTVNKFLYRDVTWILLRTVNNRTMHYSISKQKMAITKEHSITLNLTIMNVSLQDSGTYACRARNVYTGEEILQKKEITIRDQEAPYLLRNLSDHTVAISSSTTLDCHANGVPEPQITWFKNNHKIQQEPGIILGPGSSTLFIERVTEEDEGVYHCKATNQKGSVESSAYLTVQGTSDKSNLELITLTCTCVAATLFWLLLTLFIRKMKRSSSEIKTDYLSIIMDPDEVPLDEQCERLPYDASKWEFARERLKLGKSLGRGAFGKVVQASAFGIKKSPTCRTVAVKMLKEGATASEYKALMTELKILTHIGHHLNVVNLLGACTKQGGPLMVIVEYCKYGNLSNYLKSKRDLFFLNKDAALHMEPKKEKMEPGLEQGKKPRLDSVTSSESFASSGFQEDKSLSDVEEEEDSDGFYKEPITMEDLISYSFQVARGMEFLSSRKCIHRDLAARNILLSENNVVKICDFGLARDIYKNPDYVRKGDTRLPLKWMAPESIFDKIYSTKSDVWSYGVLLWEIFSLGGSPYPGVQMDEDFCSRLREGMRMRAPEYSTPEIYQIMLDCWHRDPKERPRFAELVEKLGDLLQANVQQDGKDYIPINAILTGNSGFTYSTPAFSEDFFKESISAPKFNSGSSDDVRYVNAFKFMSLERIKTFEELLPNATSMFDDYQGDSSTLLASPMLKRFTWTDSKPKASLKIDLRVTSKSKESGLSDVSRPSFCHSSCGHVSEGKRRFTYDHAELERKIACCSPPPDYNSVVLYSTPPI

For `COC[C@H]1OC(=O)c2coc3c2[C@@]1(C)C1=C(C3=O)[C@@H]2CCC(=O)[C@@]2(C)C[C@H]1OC(C)=O` [wortmannin], the “inhibition of the effects of VEGF on CTGF mRNA expression” value [1, 14] was 88±6.5% and the “inhibition of the effects of VEGF on CTGF mRNA expression” value [2, 14] was 78±22%.

In the case of `CN(C)CCCn1cc(C2=C(c3c[nH]c4ccccc34)C(=O)NC2=O)c2ccccc21` [GF 109203X], the “effect on VEGF-induced CTGF mRNA expression” value ([1]; pretreatment GF 109203X 1 μM or PD98059 20 μM, VEGF 25 ng/ml 6 h) is reported as “Neither GF 109203X nor PD98059 had significant effects” and the “effect on VEGF-induced CTGF mRNA expression” value ([2]; VEGF 25 ng/ml 6 h) is reported as “Neither GF 109203X nor PD98059 had significant effects”.

In the case of `COc1cccc(-c2cc(=O)c3ccccc3o2)c1N` [PD98059], the “effect on VEGF-induced CTGF mRNA expression” value ([2]; VEGF 25 ng/ml 6 h) is reported as “Neither GF 109203X nor PD98059 had significant effects”.

With “TGF-β1: transforming growth factor-β1, from R & D Systems” the “CTGF protein expression increase” value [3] was 2.8±0.8 fold and the “CTGF mRNA levels increase (comparative study)” value [4] was 3.3±0.5 fold.

With “Vascular endothelial growth factor (VEGF) (ligand)” the CTGF mRNA (Northern blot, BRPC, 25 ng/ml VEGF, maximum after 9 h) [5] was 2 fold and the CTGF mRNA (Northern blot, BREC, 25 ng/ml VEGF, maximum after 6 h) [6] was 3.1 fold.

With VEGF the “level of CTGF protein” value ([3]; 25 ng/ml, after 10 h) was “increased”, the “CTGF protein expression increase” value [3] was 2.5±0.4 fold and the “interactions of Flt1 and p85 subunit of PI3-kinase” value [7] was “increased”. For the same molecule, the “tyrosine phosphorylation of Flt1” value [7] was “increased”, the “interactions of KDR and p85 subunit of PI3-kinase” value [8] was “promoted” and the “tyrosine phosphorylation of KDR” value [8] was “promoted”. For the same molecule, the Kd [9] was 0.01 to 0.1 nM, the “CTGF mRNA levels, maximum increase” value [10] was 2.0±0.22 fold and the “concentration of maximal increase of CTGF mRNA” value ([10]; 6 h of stimulation) was 25 ng/mL. For the same molecule, the “lowest concentration with significant increase of CTGF mRNA” value ([10]; 6 h of stimulation) was 0.25 ng/mL, the “CTGF mRNA increase with cycloheximide, compared with cycloheximide alone” value [10, 15] was 2.5±0.40 fold and the “phosphorylation of Erk” value ([11]; BREC) was 5.8 fold. For the same molecule, the Erk phosphorylation ([11]; BRPC) was “No effect”, the “phosphorylation of Akt” value ([12]; BREC) was 3.1 fold and the “phosphorylation of Akt” value ([12]; BRPC) was 2.6 fold. The “level of CTGF protein” value [13] was “increased”, the “CTGF mRNA levels, maximum increase” value ([4]; 25 ng/ml, after 6 h) was 3.1±0.70 fold and the “concentration of maximal increase of CTGF mRNA” value ([4]; 6 h of stimulation) was 25 ng/mL. For the same molecule, the “lowest concentration with significant increase of CTGF mRNA” value ([4]; 6 h of stimulation) was 0.25 ng/mL, the “CTGF mRNA increase with cycloheximide, compared with cycloheximide alone” value [4, 15] was 2.4±0.41 fold and the “CTGF mRNA levels increase (comparative study)” value [4] was 3.0±0.3 fold.

Work on placenta growth factor (P1GF) (ligand) yielded a CTGF mRNA (Northern blot, BRPC, 25 ng/ml P1GF, peak after 9 h) [5] of 1.9 fold.

With `C[C@@H]1C[C@@H]([C@H](O)CC2CC(=O)NC(=O)C2)C(=O)[C@@H](C)C1` [Cycloheximide, cycloheximide] the “effect on VEGF-induced increase of CTGF mRNA” value [1, 16] was “did not prevent” and the “effect on VEGF-induced increase of CTGF mRNA” value [2, 16] was “did not prevent”.

B1: P1GF: placenta growth factor, a Flt1 receptor-specific ligand, from R & D Systems (protein, UniProt P49763 19-221, looked up)
Placenta growth factor: LPAVPPQQWALSAGNGSSEVEVVPFQEVWGRSYCRALERLVDVVSEYPSEVEHMFSPSCVSLLRCTGCCGDENLHCVPVETANVTMQLLKIRSGDRPSYVELTFSQHVRCECRHSPGRQSPDMPGDFRADAPSFLPPRRSLPMLFRMEWGCALTGSQSAVWPSSPVPEEIPRMHPGRNGKKQQRKPLREKMKPERCGDAVPRR
For B1, the “interactions of Flt1 and p85 subunit of PI3-kinase” value [7] was “increased”, the “tyrosine phosphorylation of Flt1” value [7] was “increased” and the “interactions of KDR and p85 subunit of PI3-kinase” value [8] was “not”. The “tyrosine phosphorylation of KDR” value [8] was “not”, the “CTGF mRNA levels, maximum increase” value [10] was 1.9±0.30 fold and the “CTGF mRNA levels after stimulation” value ([4]; 25 ng/ml) was “not affected”.
